Results reported in US9259432B1, “Composition and methods for targeted delivery of a therapeutic compound to the brain or spinal cord of a subject for treatment of neurodegenerative diseases” (Parminder J. S. Vig, priority 2011, dated 2016).

Experiments:
[1] = test system: SHSY5Y cells; assay: 488-S100B uptake in SHSY5Y cells; assay type: cell-based; settings: then 1 μM 488-S100B 3 hrs
Method: FIG. 14: (a) WT SHSY5Y cells were placed on chamber slides and pretreated with 50 μM Synb1-ELP-TRTK or Synb1-ELP-GGC for 1 hr at 37° C. Next, cells were washed then treated with 1 μM 488-S100B for 3 hrs followed by washing, fixation and DAPI staining. Shown is DAPI nuclear stain in blue and 488-S100B in green. Scale bar: 10 μm. (b) SHSY5Y cells were placed on 6-well plates and pretreated with 50 μM Synb1-ELP-TRTK12 or Synb1-ELP-GGC for 1 hr at 37° C. then treated with 1 μM 488-S100B for 3 hrs, then cells were removed and 488-S100B uptake was measured using flow cytometry. Data is shown as MEAN±STDEV of the % Uptake relative to the control. Statistics were taken using student's t-test. *P<0.05.
SHSY5Y cells (Invitrogen, Carlsbad, Calif., USA) were maintained in DMEM/F12 media (Fisher, Houston, Tex., USA) supplemented with 15% FBS, penicillin-streptomycin (Sigma), and grown in an incubator at 37° C. in the presence of 5% CO2. […] Next, cells were washed then treated with 1 μM 488-S100B for 3 hrs and S100B uptake was analyzed by Epi-fluorescence or by Beckman Cytometric FC 500 flow cytometer as previously described (Bidwell et al., 2009). For flow cytometry experiments, 488-S100B uptake was measured by quenching extracellular fluorescence by coating the cells with Trypan Blue (Fisher) as described previously (Bidwell et al., 2009). […]

[2] = biological target: T1, S100B (Homo sapiens, UniProt P04271); assay: Thermal pull-down assay of ELP polypeptide with S100B; assay type: binding; settings: 60 μM polypeptide, western blot with S100B antibody
T1 construct: purchased Sigma-Aldrich
T1 sequence (P04271 2-92 limits assumed): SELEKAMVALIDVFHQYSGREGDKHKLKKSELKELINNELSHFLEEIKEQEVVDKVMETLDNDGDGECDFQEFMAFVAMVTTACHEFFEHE
Method: FIG. 9 is a blot showing that CPP-ELP-TRTK12 interacts with S100B protein in vitro. Solutions containing 60 μM Synb1-ELP-TRTK12 or Synb1-ELP were mixed with or without 1 μM S100B in PBS for 30 min at 37° C. The solutions were then incubated in a hot water bath maintained at 50° C. for 5 minutes to induce SynB1-ELP-TRTK12 aggregation. After heating, the solutions were centrifugated at 14,000 rpm to recover the ELP polypeptide aggregates (pellets). The ELP polypeptide pellets were washed 3 times with PBS and reheated and pelleted between washes. To assess ELP polypeptide-S100B interactions, the remaining ELP pellets were subjected to western blotting using a S100B antibody.
Shown are the turbidity assay results of various concentrations of (b) Synb1-ELP-GGC and (c) Synb1-ELP-TRTK heated from 25° C. to 75° C. […] (d) Shown is the thermal pull-down assay procedure, where a solution containing S100B and Synb1-ELP-TRTK protein are allowed to interact at 37° C. in a microcentrifuge tube. […] Once the supernatant is removed the protein pellet can be analyzed by western blotting techniques to reveal protein-protein interactions. […] Solutions containing 60 μM Synb1-ELP-TRTK or Synb1-ELP-GGC (control peptide) were mixed with or without 1 μM S100B and subjected to thermal pull-down assay procedure and analyzed by western blotting using an S100B antibody. […]

interaction with S100B dimer and monomer (FIG. 9) ([2]; 1 μM S100B in PBS, aggregation at 50° C.): strong interaction
interaction with S100B (FIG. 11E) ([2]; 1 μM S100B, thermal cycling at 42° C.): bound both S100B monomers and dimers
Substance: Synb1-ELP-TRTK: thermally responsive S100B inhibitory polypeptide: Synb1 cell penetrating peptide, elastin-like polypeptide (ELP) and TRTK12 peptide fused
488-S100B uptake, epi-fluorescence ([1]; 50 μM pretreatment 1 hr at 37° C.): reduced 488-S100B cellular uptake
488-S100B uptake, flow cytometry ([1]; 50 μM pretreatment 1 hr, vs Control and Synb1-ELP-GGC pretreated cells): significantly reduced 488-S100B uptake
